Results taken from patent US7476650B2, “Enzyme inhibition” (Yale University, priority 1999, dated 2009).
Where a SMILES comes first, the peptide text is derived from it. The star is where a group is joined. Cbz = O=C(OCc1ccccc1)*

Assays:
[1] = tested on: p53 protein levels in HUVECs; experiment: α-p53 immunoblot of treated HUVECs; type: cell-based; conditions: 5 μM
Description: The tumor suppressor p53 is a known target of the proteasome.
(§1) The control experiment (Crtl) was carried out with vehicle only.

[2] = target: T1, purified murine spleen proteasome (Mus musculus, UniProt O35955+P28063+P70195); experiment: [3H]-epoxomicin binding to purified proteasome; conditions: compared with epoxomicin-biotin
T1 construct: from tissue; host or cells: murine spleen
T1 sequence (P28063 73-276): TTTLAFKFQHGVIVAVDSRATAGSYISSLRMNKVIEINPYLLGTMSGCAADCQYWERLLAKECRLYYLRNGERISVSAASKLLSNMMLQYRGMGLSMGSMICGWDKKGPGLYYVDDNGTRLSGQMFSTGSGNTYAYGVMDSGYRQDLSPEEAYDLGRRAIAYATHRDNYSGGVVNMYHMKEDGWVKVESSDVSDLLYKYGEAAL
T1 sequence (O35955 40-273): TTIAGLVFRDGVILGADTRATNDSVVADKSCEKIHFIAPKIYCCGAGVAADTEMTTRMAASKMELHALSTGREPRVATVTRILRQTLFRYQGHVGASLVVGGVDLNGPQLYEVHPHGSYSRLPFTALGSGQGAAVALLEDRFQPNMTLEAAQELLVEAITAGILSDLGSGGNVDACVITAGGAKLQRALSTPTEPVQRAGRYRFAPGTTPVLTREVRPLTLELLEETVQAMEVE
T1 sequence (P70195 44-277): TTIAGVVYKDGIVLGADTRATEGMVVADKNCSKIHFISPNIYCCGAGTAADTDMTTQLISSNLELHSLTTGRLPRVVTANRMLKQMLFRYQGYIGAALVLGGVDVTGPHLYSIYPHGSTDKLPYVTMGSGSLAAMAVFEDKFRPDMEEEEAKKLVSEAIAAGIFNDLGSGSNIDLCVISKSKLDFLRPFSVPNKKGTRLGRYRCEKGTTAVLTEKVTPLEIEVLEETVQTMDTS

[3] = tested on: ubiquitinated proteins in Hela cells; experiment: α-ubiquitin immunoblot of treated Hela cells; type: cell-based; conditions: epoxomicin 10 μM, 2 hours
Description: as §1

CC(=O)N[C@@H](CSC(=O)[C@]1([C@@H](O)C(C)C)NC(=O)[C@H](C)[C@@H]1O)C(=O)O [lactacystin]
increase of p53 levels over untreated cells [1]: 10 fold

[3H]C([3H])([3H])C(=O)N(C)[C@H](C(=O)N[C@H](C(=O)N[C@H](C(=O)N[C@@H](CC(C)C)C(=O)[C@@]1(C)CO1)[C@@H](C)O)[C@@H](C)CC)[C@@H](C)CC [[^3H] epoxomicin]
protein binding pattern [2]: same protein binding pattern observed with epoxomicin-biotin

CC(C)C[C@@H](C=O)NC(=O)[C@H](CC(C)C)NC(=O)[C@H](CC(C)C)NC(=O)OCc1ccccc1 [Z-LLL-H] (Cbz-Leu-Leu-Leu-aldehyde)
accumulation of ubiquitinated proteins (anti-ubiquitin antibody) [3]: upper molecular weight bands were also observed
